Consider 21 compounds from ChEMBL document CHEMBL5291721, “A preclinical secondary pharmacology resource illuminates target-adverse drug reaction associations of marketed drugs” (Nat Commun, 2023).

By AC50 is commonly meant the concentration at which the activity in the assay is half-maximal.

For assay [1], the target named is T1, Muscarinic acetylcholine receptor M2 (Homo sapiens, UniProt P08172).
T1 sequence (P08172 whole entry): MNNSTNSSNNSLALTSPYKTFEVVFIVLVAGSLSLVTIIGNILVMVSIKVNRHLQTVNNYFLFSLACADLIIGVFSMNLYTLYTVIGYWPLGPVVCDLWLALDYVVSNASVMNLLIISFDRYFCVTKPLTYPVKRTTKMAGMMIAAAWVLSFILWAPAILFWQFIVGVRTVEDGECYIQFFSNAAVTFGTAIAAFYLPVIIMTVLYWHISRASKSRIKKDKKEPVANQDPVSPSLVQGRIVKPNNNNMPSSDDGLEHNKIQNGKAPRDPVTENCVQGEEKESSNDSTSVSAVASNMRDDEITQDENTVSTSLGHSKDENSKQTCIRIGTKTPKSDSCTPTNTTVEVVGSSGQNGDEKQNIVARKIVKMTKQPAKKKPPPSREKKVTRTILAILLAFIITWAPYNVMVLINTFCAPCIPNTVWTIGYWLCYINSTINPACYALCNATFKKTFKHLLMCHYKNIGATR

Assay [2] has as its target T2, Alpha-1A adrenergic receptor (Homo sapiens, UniProt P35348).
T2 sequence (P35348 whole entry): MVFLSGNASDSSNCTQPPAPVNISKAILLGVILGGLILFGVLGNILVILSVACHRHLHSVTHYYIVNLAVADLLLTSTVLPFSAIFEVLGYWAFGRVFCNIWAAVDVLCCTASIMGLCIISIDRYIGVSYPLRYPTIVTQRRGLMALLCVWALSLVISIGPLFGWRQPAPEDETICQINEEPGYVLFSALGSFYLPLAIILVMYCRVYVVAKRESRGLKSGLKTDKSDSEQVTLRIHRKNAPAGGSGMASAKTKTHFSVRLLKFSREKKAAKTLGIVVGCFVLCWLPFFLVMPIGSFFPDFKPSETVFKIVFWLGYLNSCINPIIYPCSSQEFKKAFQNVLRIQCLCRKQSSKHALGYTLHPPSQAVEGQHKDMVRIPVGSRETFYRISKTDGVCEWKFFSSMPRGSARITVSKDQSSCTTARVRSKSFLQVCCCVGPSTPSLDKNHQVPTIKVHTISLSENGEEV
In kind it is functional, cell-based.

A further assay deals with T3, Progesterone receptor (Homo sapiens, UniProt P06401).
T3 sequence (P06401 whole entry): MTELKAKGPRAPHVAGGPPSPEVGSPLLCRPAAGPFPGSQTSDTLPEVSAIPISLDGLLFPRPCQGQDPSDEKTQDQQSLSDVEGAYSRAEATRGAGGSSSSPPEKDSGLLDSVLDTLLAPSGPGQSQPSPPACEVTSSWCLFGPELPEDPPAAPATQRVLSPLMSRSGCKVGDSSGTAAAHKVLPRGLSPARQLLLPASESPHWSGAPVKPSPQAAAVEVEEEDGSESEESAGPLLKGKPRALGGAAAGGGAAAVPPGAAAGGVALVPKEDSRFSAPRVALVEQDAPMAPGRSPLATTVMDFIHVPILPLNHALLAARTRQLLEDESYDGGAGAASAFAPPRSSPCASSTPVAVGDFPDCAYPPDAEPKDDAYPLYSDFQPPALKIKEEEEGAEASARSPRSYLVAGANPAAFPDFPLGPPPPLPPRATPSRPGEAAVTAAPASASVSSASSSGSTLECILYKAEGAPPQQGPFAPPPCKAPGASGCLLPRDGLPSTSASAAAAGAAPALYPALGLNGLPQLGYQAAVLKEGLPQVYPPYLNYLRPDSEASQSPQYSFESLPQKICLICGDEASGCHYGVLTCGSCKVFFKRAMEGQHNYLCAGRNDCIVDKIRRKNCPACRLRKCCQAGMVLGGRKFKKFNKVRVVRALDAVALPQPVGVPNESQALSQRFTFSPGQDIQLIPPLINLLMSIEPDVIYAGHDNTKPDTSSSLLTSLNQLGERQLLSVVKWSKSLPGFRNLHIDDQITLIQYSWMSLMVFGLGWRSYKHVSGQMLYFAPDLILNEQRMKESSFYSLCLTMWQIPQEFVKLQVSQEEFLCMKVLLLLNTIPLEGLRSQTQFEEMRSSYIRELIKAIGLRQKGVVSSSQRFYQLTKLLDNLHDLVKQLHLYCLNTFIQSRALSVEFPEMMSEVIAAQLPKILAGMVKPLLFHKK

Assay [3] concerns the target Prostaglandin G/H synthase 1 (Homo sapiens, UniProt P23219). In kind it is functional.
In assay [4] the target is cGMP-inhibited 3',5'-cyclic phosphodiesterase 3A (Homo sapiens, UniProt Q14432). Format: functional.
The target of a further assay is T4, Estrogen receptor (Homo sapiens, UniProt P03372).
T4 sequence (P03372 whole entry): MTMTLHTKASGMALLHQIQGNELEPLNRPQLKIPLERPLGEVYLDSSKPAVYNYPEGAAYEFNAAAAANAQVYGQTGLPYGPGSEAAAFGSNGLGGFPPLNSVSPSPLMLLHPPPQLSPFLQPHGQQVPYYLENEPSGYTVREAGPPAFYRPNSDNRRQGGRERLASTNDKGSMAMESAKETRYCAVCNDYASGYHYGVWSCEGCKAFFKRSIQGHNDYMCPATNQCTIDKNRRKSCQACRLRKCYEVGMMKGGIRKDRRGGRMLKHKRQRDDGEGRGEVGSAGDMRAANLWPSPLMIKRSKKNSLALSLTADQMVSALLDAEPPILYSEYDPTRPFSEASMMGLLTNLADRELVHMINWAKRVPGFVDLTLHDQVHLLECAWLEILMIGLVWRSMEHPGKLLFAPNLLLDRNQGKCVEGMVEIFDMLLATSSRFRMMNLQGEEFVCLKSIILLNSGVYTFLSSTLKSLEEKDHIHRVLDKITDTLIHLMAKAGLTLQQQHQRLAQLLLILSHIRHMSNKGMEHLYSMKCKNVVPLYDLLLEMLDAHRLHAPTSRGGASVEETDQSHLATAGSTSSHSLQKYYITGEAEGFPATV
Further: assay procedure not described here.

Chain of Prostaglandin G/H synthase 1 (P23219 whole entry): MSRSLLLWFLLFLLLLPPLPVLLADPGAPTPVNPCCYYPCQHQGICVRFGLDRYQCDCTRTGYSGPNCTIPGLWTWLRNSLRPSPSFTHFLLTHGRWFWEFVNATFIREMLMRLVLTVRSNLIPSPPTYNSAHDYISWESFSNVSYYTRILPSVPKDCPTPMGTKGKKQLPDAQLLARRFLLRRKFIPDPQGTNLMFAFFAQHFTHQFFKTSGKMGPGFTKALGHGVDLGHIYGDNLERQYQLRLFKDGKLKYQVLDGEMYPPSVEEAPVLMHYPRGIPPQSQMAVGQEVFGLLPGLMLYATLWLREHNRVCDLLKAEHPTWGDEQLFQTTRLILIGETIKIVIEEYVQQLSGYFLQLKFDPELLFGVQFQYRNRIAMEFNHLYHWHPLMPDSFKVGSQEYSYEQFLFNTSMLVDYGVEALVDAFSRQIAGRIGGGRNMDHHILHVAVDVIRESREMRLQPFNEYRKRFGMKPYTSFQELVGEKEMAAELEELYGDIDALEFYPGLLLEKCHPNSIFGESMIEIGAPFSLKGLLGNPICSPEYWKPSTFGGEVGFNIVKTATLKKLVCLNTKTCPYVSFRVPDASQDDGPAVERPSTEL
Chain of cGMP-inhibited 3',5'-cyclic phosphodiesterase 3A (Q14432 whole entry): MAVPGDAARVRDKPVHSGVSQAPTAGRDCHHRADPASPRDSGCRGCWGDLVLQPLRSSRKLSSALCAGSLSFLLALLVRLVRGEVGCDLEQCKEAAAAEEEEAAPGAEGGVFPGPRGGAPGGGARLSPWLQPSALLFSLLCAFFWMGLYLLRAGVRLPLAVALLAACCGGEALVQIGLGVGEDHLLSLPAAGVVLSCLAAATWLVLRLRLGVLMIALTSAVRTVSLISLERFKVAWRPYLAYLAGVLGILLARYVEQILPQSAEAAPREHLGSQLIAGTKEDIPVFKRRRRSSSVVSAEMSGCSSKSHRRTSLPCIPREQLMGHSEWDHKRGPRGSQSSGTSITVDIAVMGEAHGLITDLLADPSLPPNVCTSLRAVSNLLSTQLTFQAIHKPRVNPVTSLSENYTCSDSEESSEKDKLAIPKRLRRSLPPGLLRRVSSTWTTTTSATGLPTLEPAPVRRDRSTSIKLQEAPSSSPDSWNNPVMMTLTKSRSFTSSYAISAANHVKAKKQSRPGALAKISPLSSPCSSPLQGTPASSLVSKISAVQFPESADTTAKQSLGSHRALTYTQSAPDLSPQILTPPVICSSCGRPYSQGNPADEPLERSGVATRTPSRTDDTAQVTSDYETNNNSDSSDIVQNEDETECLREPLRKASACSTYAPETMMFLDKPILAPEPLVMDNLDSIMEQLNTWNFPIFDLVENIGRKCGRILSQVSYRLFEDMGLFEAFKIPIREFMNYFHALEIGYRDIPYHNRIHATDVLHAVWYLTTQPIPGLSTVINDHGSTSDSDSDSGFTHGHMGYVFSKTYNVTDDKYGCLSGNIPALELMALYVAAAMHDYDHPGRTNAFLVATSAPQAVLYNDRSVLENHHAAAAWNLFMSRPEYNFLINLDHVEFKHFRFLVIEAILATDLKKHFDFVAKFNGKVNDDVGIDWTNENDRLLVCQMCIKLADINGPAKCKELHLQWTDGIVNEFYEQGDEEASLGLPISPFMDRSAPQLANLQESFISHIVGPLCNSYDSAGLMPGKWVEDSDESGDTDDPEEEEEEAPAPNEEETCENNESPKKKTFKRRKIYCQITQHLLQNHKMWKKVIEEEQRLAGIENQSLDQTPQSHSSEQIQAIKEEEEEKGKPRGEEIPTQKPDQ

Turning to `O=C(O)c1cccc(-c2noc(-c3ccccc3F)n2)c1`, the AC50 (in assay [1]; in assay [2]; at Progesterone receptor; in assay [3]; in assay [4]) was more than 30 µM each time.

Consider `CO/N=C(\C(=O)N[C@@H]1C(=O)N2C(C(=O)OCOC(=O)C(C)(C)C)=C(C)CS[C@H]12)c1csc(N)n1`, for which the AC50 was more than 30 µM in assay [1], more than 30 µM at Progesterone receptor, 23.2 µM in assay [3] and more than 30 µM in assay [4].

In the case of `Cc1c(O)cccc1C(=O)N[C@@H](CSc1ccccc1)[C@H](O)CN1C[C@H]2CCCC[C@H]2C[C@H]1C(=O)NC(C)(C)C`, the AC50 (in assay [1]; in assay [2]; on Progesterone receptor; in assay [3]; in assay [4]) was more than 30 µM each time.

As to `CCCC1C(=O)N2C(N(C)C)=Nc3ccc(C)cc3N2C1=O` (stereo unspecified) [APAZONE], the AC50 is more than 30 µM in assay [1]; more than 30 µM in assay [2]; more than 30 µM on Progesterone receptor; 8.41 µM in assay [3]; more than 30 µM in assay [4].

On to `O=C(Cn1ccnc1[N+](=O)[O-])NCc1ccccc1` [BENZNIDAZOLE], for which the AC50 (in assay [1]; on Progesterone receptor; in assay [3]; in assay [4]; at Estrogen receptor) was more than 30 µM throughout.

In the case of `CCCCN(CCCC)CCCOC(=O)c1ccc(N)cc1` [BUTACAINE], the concentration at half-maximal activity (AC50) in assay [1] was 16.3 µM; in assay [2], more than 30 µM; in assay [3], more than 30 µM; in assay [4] it was more than 30 µM.

Regarding `COCC1=C(C(=O)OC(C)OC(=O)OC(C)C)N2C(=O)[C@@H](NC(=O)/C(=N\OC)c3csc(N)n3)[C@H]2SC1` (stereo partly specified) [CEFPODOXIME PROXETIL], the AC50 is more than 30 µM in assay [1]; more than 30 µM on Progesterone receptor; 18.1 µM in assay [3]; more than 30 µM in assay [4]; more than 30 µM at Estrogen receptor.

For the compound `NS(=O)(=O)c1cc2c(cc1Cl)NC(CC1CCCC1)NS2(=O)=O` (stereo unspecified) [CYCLOPENTHIAZIDE], the AC50 (in assay [1]; on Progesterone receptor; in assay [3]; in assay [4]) was more than 30 µM each time.

With `C[C@@H]1C[C@H]2[C@@H]3CCC4=CC(=O)C=C[C@]4(C)[C@@]3(F)[C@@H](O)C[C@]2(C)[C@H]1C(=O)CO` [DESOXIMETASONE], the half-maximal activity concentration (AC50) in assay [1] was more than 30 µM; in assay [2], more than 30 µM; at Progesterone receptor, 0.0331 µM; in assay [3] it was more than 30 µM; in assay [4] it was more than 30 µM.

As to `N/N=c1/cc2c(n[nH]1)CCN(C(=O)c1ccccc1)C2` [ENDRALAZINE], the AC50 (in assay [1]; at Progesterone receptor; in assay [3]; in assay [4]; on Estrogen receptor) was more than 30 µM each time.

As for `CC(C)=CCC1C(=O)N(c2ccccc2)N(c2ccccc2)C1=O` [FEPRAZONE], the concentration at half-maximal activity (AC50) in assay [1] is more than 30 µM; at Progesterone receptor, more than 30 µM; in assay [3], 0.26 µM; in assay [4], more than 30 µM; on Estrogen receptor, more than 30 µM.

As to `CS(=O)(=O)Nc1cc2occ(NC=O)c(=O)c2cc1Oc1ccccc1` [IGURATIMOD], the AC50 in assay [1] was more than 30 µM; in assay [2], more than 30 µM; at Progesterone receptor it was more than 30 µM; in assay [3] it was 4.51 µM; in assay [4], more than 30 µM.

In the case of `CC(=O)O[C@]1(C(C)=O)CC[C@H]2[C@@H]3C[C@H](C)C4=CC(=O)CC[C@]4(C)[C@H]3CC[C@@]21C` [MEDROXYPROGESTERONE ACETATE], the AC50 in assay [1] is 21.2 µM; in assay [2] it was more than 30 µM; in assay [3], more than 10 µM; in assay [4], more than 30 µM.

`CCC1(c2cccc(O)c2)CCCCN(C)C1` (stereo unspecified) [MEPTAZINOL]: the half-maximal activity concentration (AC50) in assay [1] was 20.9 µM; in assay [2], more than 30 µM; on Progesterone receptor it was more than 30 µM; in assay [3] it was more than 30 µM; in assay [4] it was more than 30 µM.

Consider `C1N2CN3CN1CN(C2)C3` [METHENAMINE], for which the AC50 (in assay [1]; in assay [2]; on Progesterone receptor; in assay [3]; in assay [4]) was more than 30 µM throughout.

Regarding `CO[C@@]12[C@H](COC(N)=O)C3=C(C(=O)C(C)=C(N)C3=O)N1C[C@@H]1N[C@@H]12` [MITOMYCIN], the AC50 (in assay [1]; in assay [2]; on Progesterone receptor; in assay [3]; in assay [4]) was more than 30 µM each time.

For the compound `Oc1cccc2cccnc12` [OXYQUINOLINE], the AC50 (in assay [1]; in assay [2]; at Progesterone receptor; in assay [3]; in assay [4]) was more than 30 µM in each case.

Consider `CC[C@@H]1/C=C(\C)C[C@H](C)C[C@H](OC)[C@H]2O[C@@](O)(C(=O)C(=O)N3CCCC[C@H]3C(=O)O[C@H](/C(C)=C/[C@@H]3CC[C@H](Cl)[C@H](OC)C3)[C@H](C)[C@@H](O)CC1=O)[C@H](C)C[C@@H]2OC` [PIMECROLIMUS], for which the AC50 is more than 30 µM in assay [1]; more than 30 µM in assay [2]; more than 30 µM on Progesterone receptor; more than 30 µM in assay [3]; more than 3 µM in assay [4].

For the compound `CC(C(=O)O)c1ccc2c(c1)Cc1cccnc1O2` (stereo unspecified) [PRANOPROFEN], the AC50 in assay [1] was more than 30 µM; in assay [2], more than 30 µM; on Progesterone receptor, more than 30 µM; in assay [3], 0.478 µM; in assay [4], more than 30 µM.

Take `O=C1CCC(N2C(=O)c3ccccc3C2=O)C(=O)N1` (stereo unspecified) [THALIDOMIDE]: the AC50 is 14.8 µM in assay [1]; more than 30 µM in assay [2]; more than 30 µM at Progesterone receptor; more than 30 µM in assay [3]; more than 30 µM in assay [4].

Regarding `C[C@@H]1O[C@@H](OC[C@H]2O[C@@H](Oc3c(-c4ccc(OCCO)c(OCCO)c4)oc4cc(OCCO)cc(O)c4c3=O)[C@H](O)[C@@H](O)[C@@H]2O)[C@H](O)[C@H](O)[C@H]1O` [TROXERUTIN], the AC50 (in assay [1]; in assay [2]; at Progesterone receptor; in assay [3]; in assay [4]) was more than 30 µM in each case.
